Here are results for four molecules from patent US11530190B2, “Compounds for treating mitochondrial disease” (Khondrion IP B.V., priority 2015, dated 2022).

The structures appear in SMILES notation.

For orientation: EC50 means the concentration needed to bring the measured effect to its halfway point.

Assay [1] has as its system primary human fibroblasts derived from a Complex-I deficient patient. The assay is described as follows: Protection against oxidative stress-induced (BSO) cell death, Calcein-AM viability. The assay is classed as cell-based. An excerpt: (§1) Methods: To assess the ability of the compounds to protect patient cells against oxidative stress-induced cell death an assay was established using stressed primary human fibroblasts derived from a Complex-I deficient patient. Utilizing the inherent oxidative stress of fibroblasts from patients with mitochondrial disease, their oxidative burden was further increased by depleting cellular glutathione with an inhibitor of glutathione synthesis, L-buthionine-(S,R)-sulfoximine (BSO).
Cells were seeded at a density of 3000 cells/well in a 96-well format plate and incubated with increasing concentrations of compounds in combination with BSO (200 μM, Sigma-Aldrich). Two days after treatment, the cells were washed twice and stained with a solution of 5 μM Calcein-AM (Life technologies C3100MP) during 25 min in 199 medium without phenol red (Life technologies, 11043-023) at 37° C., 5% CO2. After 2 washes with PBS the plate was read on a fluorescence plate reader (Fluostar Omega, BMG labtech) and the percentage of cell viability was determined as a function of fluorescence intensity (FIG. 2).

For assay [2], the system named is fibroblasts from healthy individuals. The assay is described as follows: Effect of BSO on viability of fibroblasts from healthy individuals, Calcein-AM. Format: cell-based, human. Conditions: BSO 200 μM, 48 h; FIG. 1. How it is done: FIG. 1. Effect of L-buthionine-(S,R)-sulfoximine (BSO), an inhibitor of glutathione synthesis, on the viability of primary human fibroblasts derived from healthy individuals or derived from Complex-I deficient patients. Two days after treatment of 48 h with 200 μM BSO, cells were washed and stained with Calcein-AM. Cell viability was determined as a function of fluorescence intensity.
as §1

The test system of assay [3] is Primary human fibroblasts obtained from a patient with mitochondrial disease. The assay is described as follows: Intracellular superoxide production, hydroethidine (HEt) fluorescence microscopy. The assay is classed as cell-based. Conditions: approximately 24 hours with increasing concentrations, HEt 10 μM; FIG. 4A-E. The method, then: Methods: HEt (Hydroethidine) is a non-fluorescent compound, which can enter the cells freely. There it is oxidized by superoxide to its fluorescent products E^+ and 2OHE^+, which accumulate in negatively charged cellular compartments (i.e. nucleus and mitochondria). E^++2OHE^+ fluorescence is thus considered a measure of superoxide production within the cell.
The effect of the compounds on the intracellular superoxide levels was measured. Primary human fibroblasts obtained from a patient with mitochondrial disease were seeded at a density of 3000 cells/well in a 96-well format. The following day, the culture medium was replaced with 100 μl medium containing the compounds at different concentrations. After approximately 24 hours the cells were incubated with 100 μL medium without FBS and phenol red and containing HEt at a final concentration 10 μM (Life Technologies). The cell culture plate containing HEt was placed for 10 minutes at 37° C., 5% CO2. Next, the cells were washed twice with medium, placed in culture medium without FBS and phenol red and visualized by fluorescence microscopy (BD Pathway 855, BDBiosciences). From the obtained images superoxide levels were analysed using Image Pro plus (Media Cybernetics) software.

Assay [4] concerns Primary human fibroblasts derived from a patient with mitochondrial disease. Nature of the assay: Cellular ROS levels after H2O2 induction, CM-H2DCFDA fluorescence. Format: cell-based. The conditions noted are these: compound 10 μM, H2O2 100 μM; FIG. 3. An excerpt: Methods: CM-H2DCFDA is a cell-permeable reporter molecule for reactive oxygen species (ROS) that is converted into non-fluorescent and membrane-impermeable CM-H2DCF following removal of its acetate groups by intracellular esterases. Upon oxidation by ROS, CM-H2DCF is converted into fluorescent CM-DCF. It is widely accepted that a wide variety of ROS can be responsible for the CM-H2DCF oxidation, making it a suitable reporter of cellular oxidant levels. The average cellular CM-DCF fluorescence intensity is considered an indirect measure of cellular ROS levels.
The effect of the compounds on the intracellular ROS levels was measured in response to an induction of ROS by hydrogen peroxide. Primary human fibroblasts derived from a patient with mitochondrial disease were seeded at a density of 2500 cells/well in a 96-well format plate. […] Wells without cells were used to correct for the background fluorescence. The plate was read on a fluorescence plate reader (Fluostar Omega, BMG labtech) in a kinetic mode with a 2 min interval cycle. After 4 cycles, H2O2 (final concentration 100 μM) was added using onboard injectors and the fluorescence measurement was resumed for 1 hour. After background correction the fluorescence intensities were plotted as a function of time.

In assay [5] the test system is cultured healthy human skin fibroblasts. The conditions noted are these: cited from earlier work.

Regarding `CCCCS(=N)(=O)CCC(N)C(=O)O` [BSO, L-buthionine-(S,R)-sulfoximine], in assay [1] (BSO 200 μM alone, within 48 h, FIG. 1), the “viability of patient fibroblasts after BSO insult” value is “complete cell death”. For the same molecule, the “viability of fibroblasts from healthy individuals after BSO insult” value in assay [2] was “retained full viability”.
With `CC(C)=CCC/C(C)=C/CC/C(C)=C/CC[C@@](C)(O)CCC1=C(C)C(=O)C(C)=C(C)C1=O` [EPI743], the EC50 in assay [1] (200 μM BSO, two days, Calcein-AM cell viability, formate salt, read-out: EC50 in protecting the cells against oxidative stress-induced cell death) was 35.3 nM. Also, in assay [3], the “superoxide scavenging / superoxide levels (HEt fluorescence)” value is on record as “only a limited ability to scavenge superoxide”. In addition, the “H2O2-mediated induction of cellular ROS levels (CM-DCF fluorescence)” value in assay [4] is given as “slightly diminished”.
On to `COC1=C(OC)C(=O)C(CCCCCCCCCCO)=C(C)C1=O` [Idebenone], for which the “superoxide scavenging / superoxide levels (HEt fluorescence)” value in assay [3] is “only a limited ability to scavenge superoxide”. In addition, in assay [4], the “H2O2-mediated induction of cellular ROS levels (CM-DCF fluorescence)” value is “slightly diminished”.
Take `Cc1c(C)c2c(c(C)c1O)CCC(C)(C(=O)O)O2` (centres unmarked) [Trolox, 6-hydroxy-2,5,7,8-tetramethylchroman-2-carboxylic acid]: the “levels of ROS” value in assay [5] is “reduces the levels of ROS”.
